Experimental data published in paper PMC9916658, “Design and Synthesis of New Quinazolin-4-one Derivatives with Negative mGlu7 Receptor Modulation Activity and Antipsychotic-Like Properties” (International Journal of Molecular Sciences, 2023).
≈ marks a conversion by molar mass, not a printed value. Like-named read-outs stand apart in the source and are kept apart here.

Key:
mock T-REx 293 cell line = assay: Off-target T-REx screening, forskolin-induced cAMP in untransfected cells; assay type: cell-based
From the text: Off-target (T-Rex screening)
Figure S5. Activity of compounds ALX-065 and ALX-171 in forskolin-induced cAMP accumulation in
untransfected cells of the T-REx 293 line. Similar to reference mGlu7 receptor ADX71743, no effects of the tested […]

[1] = Kinetic solubility assay in HBSS buffer; assay type: physicochemical; settings: aqueous buffer, kinetic from dmso stock; Hanks-HEPES (HBSS buffer), pH 7.4; read-out: KS (kinetic solubility)
Protocol: The kinetic solubility assay was performed to determine the solubility of the compounds in the in vitro assay conditions. The assay investigated the solubility based on the precipitation process in the HBSS buffer. For the preparation of the assay buffer, the following compounds were dissolved in 800 mL purified water: • − 130 mM sodium chloride, NaCl (7.600 g); • − 5.4 mM potassium chloride, KCl (0.403 g); • − 0.8 mM magnesium sulfate, MgSO4 × 7H2O (0.197 g); • − 0.9 mM sodium phosphate monobasic, NaH2PO4 × 2H2O (0.140 g); • − 25 mM D-glucose (4.500 g); • − 20 mM HEPES sodium salt (5.210 g).
The buffer was adjusted to pH 7.4, and the following compound was added to the mixture: • − 1.8 mM calcium chloride, CaCl2 × 2H2O (0.265 g).
The total volume was adjusted to 1000 mL.
The investigated compounds were diluted (in triplicate) with the HBSS buffer at pH 7.4 to a final concentration of 500 μM.
The mixture was shaken on a filter plate at 500 rpm for 1.5 h at RT. After incubation, the filter plate was placed inside a vacuum manifold and filtrated. Samples were collected and the concentration of the filtrate was determined spectrophotometrically by measuring the UV–VIS absorption spectrum. Concentrations were calculated based on equations resulting from the calibration curves (in duplicates, 8 calibration points, dilution Factor ×2, 500 µM → 3.91 µM, including blank sample).

[2] = Pharmacokinetics and brain uptake in mice after i.p. administration; assay type: in vivo, mouse (Albino Swiss); settings: 10 mg/kg i.p.; for AUC(0-t) / Tmax / half-life / Cmax: ip
Protocol: Compounds were administered to mice at a dose of 10 mg/kg i.p. Plasma and tissue samples were collected at 0.25, 0.50, 1.0, 2.0, 4.0, 6.0, and 24 h. Plasma and tissue samples from all drug-treated animals were thawed at room temperature prior to use. The standard protocol for sample preparation was used: 200 μL of acetonitrile was added to the Eppendorf tubes with 50 μL of studied plasma samples or tissue homogenate. Samples were mixed for 5 min on a mixer at 25 °C and 1400 rpm. The tubes were then centrifuged at 2000× g for 15 min at 4 °C. A total of 180 μL of each supernatant was transferred to a plate well. Finally, each sample was injected into the LC–MS column. Calibration curve serial dilution method: Plasma was spiked with a standard at different concentrations. Acetonitrile was added. After mixing and centrifugation, the supernatant was collected.
Chromatographic conditions. Plasma and tissue samples from all drug-treated animals at selected time points were analyzed using a previously developed nonvalidated LC–MS/MS method. […] The LC–MS analysis was carried out on a Bruker amaZon SL mass spectrometer using the positive/negative ion ESI mode. Chromatographic separation was achieved on an Ascentis Express C18 column (5 cm × 2.1 mm, 2.7 μM, Supelco Technologies) at room temperature with a thermostatted column oven. A gradient elution of eluents A (acetonitrile (LiChrosolv, Reag. Ph Eur) + 0.1% formic acid (Sigma Aldrich, 98–100%)) and B (water + 0.1% formic acid) were used for separation. The flow rate was set at 1 mL/min. The injection volume was 20 μL, and the time of injection was 4 min.
Mass spectrometric conditions. An ion trap mass spectrometer (Bruker amaZon SL, Bruker, Bremen, Germany) was equipped with an electrospray source operating in the positive/negative ion mode. Data were collected and processed using Bruker Quant Analysis (Bruker, Bremen, Germany) software. A quantification of the analytes was performed in the SIM mode.

[3] = target: T1, recombinant human mGlu7 receptor (FAST-0154C) (Homo sapiens, UniProt Q14831); assay: NAM mGlu7 activity on CHO-K1 cell line, cAMP HTRF (EuroscreenFast protocol); assay type: cell-based; settings: CHO-K1 human mGlu7, agonist L-AP4 at EC80; for % inhibition at maximal concentration: range 1 nM – 25 µM; for IC50: read-out: IC50 (CHO-K1, Figure S4)
T1 construct: host or cells: CHO-K1
From the text: with inducible expression of human mGlu7 receptor. […]
2.2. NAM mGlu7 receptor activity on CHO-K1 cell line according to EuroscreenFast protocol
ALX-065 and ALX-171 were testing for negative allosteric modulator (NAM) activity on alternative […]
mGlu7 cell line (recombinant human mGlu7 receptor (FAST-0154C) using cAMP HTRF functional assay) […]
by EuroscreenFast company according to the provided methodology.
Receptor Accession Cell line Reference Reference
Number agonist antagonist
Compounds were tested for NAM activity at the human mGlu7 receptor (FAST-0154C) in dose […]
response and in duplicates (range concentration: 1 nM – 25 µM) […]
cAMP HTRF assay for Gi coupled receptor
CHO-K1 cells expressing recombinant human mGlu7 receptor (FAST-0154C) grown prior to the test […]
inmedia without antibiotic are detached by gentle flushing with PBS-EDTA (5 mM EDTA), recovered […]
by centrifugation and resuspended in assay buffer (KRH: 5 mM KCl, 1.25 mM MgSO4, 124 mM NaCl, […]
25 mM HEPES, 13.3 mM Glucose, 1.25 mM KH2PO4, 1.45 mM CaCl2, 0.5 g/L BSA, supplemented with 1 […]
Dose response curves are performed in parallel with the reference compounds.
For antagonist/NAM test (96 well): 12 µl of cells are mixed with 6 µl of the test compound at increasing concentrations and then incubated 10 min. Thereafter 6 µl of the mix of the forskolin and reference agonist is added at a final concentration corresponding to the historical EC80. The plates are then incubated for 30 min at room temperature. After addition of the lysis buffer and 1 hour incubation, cAMP concentrations are estimated, according to the manufacturer specification, with the HTRF kit. […]

[4] = mouse Albino Swiss, brain, read-out: AUC0-t, brain
[5] = mouse Albino Swiss, plasma, read-out: AUC0-t, plasma
[6] = Albino Swiss, mouse, plasma and brain, mice, read-out: Tmax (plasma and brain) (converted)
[7] = mouse Albino Swiss, brain, read-out: T1/2, brain (converted)
[8] = mouse Albino Swiss, brain, read-out: Tmax, brain
[9] = mouse Albino Swiss, plasma, read-out: T1/2, plasma (converted)
[10] = mouse Albino Swiss, plasma, read-out: Tmax, plasma

T1 sequence (Q14831 35-915): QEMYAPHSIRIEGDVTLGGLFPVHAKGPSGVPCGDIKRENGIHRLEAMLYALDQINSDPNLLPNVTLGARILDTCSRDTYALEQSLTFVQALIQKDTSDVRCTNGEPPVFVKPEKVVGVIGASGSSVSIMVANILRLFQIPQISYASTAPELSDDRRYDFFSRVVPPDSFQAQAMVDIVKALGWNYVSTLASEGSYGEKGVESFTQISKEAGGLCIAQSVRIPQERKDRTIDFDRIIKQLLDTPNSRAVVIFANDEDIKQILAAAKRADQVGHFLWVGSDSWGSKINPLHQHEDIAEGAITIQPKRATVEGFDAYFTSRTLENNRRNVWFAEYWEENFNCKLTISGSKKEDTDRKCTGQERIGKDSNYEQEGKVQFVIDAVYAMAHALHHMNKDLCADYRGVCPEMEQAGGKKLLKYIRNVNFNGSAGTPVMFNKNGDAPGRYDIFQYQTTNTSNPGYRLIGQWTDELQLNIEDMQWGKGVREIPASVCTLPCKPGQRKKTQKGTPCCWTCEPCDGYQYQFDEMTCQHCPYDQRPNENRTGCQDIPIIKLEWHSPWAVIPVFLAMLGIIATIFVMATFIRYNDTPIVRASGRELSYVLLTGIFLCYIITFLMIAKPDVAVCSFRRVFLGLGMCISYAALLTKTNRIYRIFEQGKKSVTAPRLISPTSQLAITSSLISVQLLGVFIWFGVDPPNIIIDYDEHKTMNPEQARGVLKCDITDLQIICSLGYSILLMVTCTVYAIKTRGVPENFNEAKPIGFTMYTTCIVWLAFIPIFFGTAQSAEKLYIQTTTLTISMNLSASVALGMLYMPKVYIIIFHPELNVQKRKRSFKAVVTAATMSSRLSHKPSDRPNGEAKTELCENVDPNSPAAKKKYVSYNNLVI

Question: Which results are given for CCc1nc2c(o1)CC(c1ccc(C)cc1C)CC2=O (stereo not drawn) [ADX71743, reference compound]?
Answer: effect on forskolin-induced cAMP accumulation in untransfected cells (mock T-REx 293 cell line): no effects; solubility kinetic at 1.5 h [1]: 510 µM (≈ 137 µg/mL); AUC(0-t) [2, 4]: 2.27 µM·h; AUC(0-t) [2, 5]: 1.9 µM·h; Cmax, brain ([2]; mouse Albino Swiss, brain): 3.38 µM/L; % inhibition at maximal concentration [3]: 62.42%; IC50 [3]: 0.43 µM

Question: With Cn1c(-c2ccccc2Cl)nc2ccc(-c3ccccc3)cc2c1=O [ALX-065, 2-(2-chlorophenyl)-3-methyl-6-phenylquinazolin-4(3H)-one] as the compound, how does the “effect on forskolin-induced cAMP accumulation in untransfected cells” value (mock T-REx 293 cell line) read?
Answer: no effects

Question: And the solubility kinetic at 1.5 h [1]?
Answer: 6.88 µM (≈ 2.39 µg/mL)

Question: And the Tmax [2, 6]?
Answer: 15 min

Question: And the AUC(0-t) [2, 4]?
Answer: 1.32 µM·h

Question: What about the half-life [2, 7] of the same compound?
Answer: 29.4 min

Question: What about the Tmax [2, 8] of the same compound?
Answer: 15 min

Question: What about the Cmax ([2]; mouse Albino Swiss, plasma) of the same compound?
Answer: 2.28 µM

Question: And the AUC(0-t) [2, 5]?
Answer: 1.99 µM·h

Question: And the half-life [2, 9]?
Answer: 78.6 min

Question: And the Tmax [2, 10]?
Answer: 15 min

Question: What about the “Cmax, brain” value ([2]; mouse Albino Swiss, brain) of the same compound?
Answer: 1.81 µM/L

Question: What about the “% inhibition at maximal concentration” value [3] of the same compound?
Answer: 99.62%

Question: And the IC50 [3]?
Answer: 3.74 µM

Question: With COc1cccc(-c2ccc3nc(-c4ccccc4Cl)n(C)c(=O)c3c2)c1OC [ALX-171, 2-(2-chlorophenyl)-6-(2,3-dimethoxyphenyl)-3-methylquinazolin-4(3H)-one] as the compound, how does the “effect on forskolin-induced cAMP accumulation in untransfected cells” value (mock T-REx 293 cell line) read?
Answer: no effects

Question: And the solubility kinetic at 1.5 h [1]?
Answer: 15.2 µM (≈ 6.2 µg/mL)

Question: And the Tmax [2, 6]?
Answer: 15 min

Question: What about the AUC(0-t) [2, 4] of the same compound?
Answer: 13.8 µM·h

Question: What about the half-life [2, 7] of the same compound?
Answer: 334 min

Question: What about the Tmax [2, 8] of the same compound?
Answer: 15 min

Question: What about the Cmax ([2]; mouse Albino Swiss, plasma) of the same compound?
Answer: 4.46 µM

Question: And the AUC(0-t) [2, 5]?
Answer: 13.4 µM·h

Question: And the half-life [2, 9]?
Answer: 312 min

Question: What about the Tmax [2, 10] of the same compound?
Answer: 30 min

Question: And the “Cmax, brain” value ([2]; mouse Albino Swiss, brain)?
Answer: 2.52 µM/L

Question: What about the “% inhibition at maximal concentration” value [3] of the same compound?
Answer: 105.21%

Question: And the IC50 [3]?
Answer: 5.6 µM
